Measurements as given in PMC7397269, “Synthesis and Evaluation of New Coumarin Derivatives as Antioxidant, Antimicrobial, and Anti-Inflammatory Agents” (Molecules, 2020).
≈ marks a conversion by molar mass, not a printed value. Where “and” joins values, the source holds several entries; their conditions need not be identical. Equal entries are not always repeated. Where two headings read alike, the source gives them in different places.

Tests used:
[1] = test system: Staphylococcus aureus ATCC 29213; test: Agar well diffusion, S. aureus; type: cell-based; settings: ATCC29213, 100 μL of 10 mg/mL in DMSO, read-out: diameter of inhibition zone, SA
From the text: (§1) The new molecules were individually tested for their antimicrobial activity in vitro against standard bacteria strains from the American Type Culture Collection (ATCC), namely, Staphylococcus aureus ATCC 29213, Bacillus subtilis ATCC 6633, Bacillus megaterium ATCC 9885 (Gram-positive), Escherichia coli ATCC 2592, and Pseudomonas aeruginosa ATCC 27,953 (Gram-negative). The compounds were also microbiologically tested against locally isolated Saccharomyces cerevisiae (yeast) and the standard Agricultural Research Service Culture Collection (NRRL) strain of the yeast-like pathogenic fungus Candida albicans NRRL Y-477. Primary screening was conducted using the agar well diffusion method using nutrient agar (NA) medium and Sabourand dextrose agar (SDA) medium for the tested pathological bacteria and yeast, respectively. […].
(§2) Antimicrobial tests were conducted via the agar well diffusion method using 100 μL of suspension containing 1 × 10^8 CFU/mL pathological tested bacteria and 1 × 10^6 CFU/mL yeast spread on NA and SDA, respectively. After the media cooled and solidified, wells (10 mm in diameter) were made in the solidified agar and loaded with 100 μL of the tested compound solution prepared by dissolving 10 mg of the chemical compound in 1 mL dimethyl sulfoxide (DMSO). The inoculated plates were then incubated for 24 h at 37 °C for bacteria and yeast growth. DMSO served as negative control. Ciprofloxacin (10 mg/mL) and ketoconazole (10 mg/mL) were used as standards for antibacterial and antifungal activity, respectively. After incubation, antimicrobial activity was evaluated by measuring the zone of inhibition against the test organisms and compared with that of the standard. Antimicrobial activities were expressed as the diameter of the inhibition zone (IZ) in mm. The experiment was carried out in triplicate and the average zone of inhibition was calculated.

COX-1 = molecular target: T1, COX-1 (Homo sapiens, UniProt P23219); test: COX-1 inhibition, Cayman assay kit; type: biochemical; settings: mean of two determinations
T1 construct: purchased Cayman Chemical 701070

[2] = test system: Pseudomonas aeruginosa ATCC 27,953; test: Agar well diffusion, P. aeruginosa; type: cell-based; settings: ATCC27, 100 μL of 10 mg/mL in DMSO, read-out: diameter of inhibition zone, PA
From the text: as §1, §2

[3] = test system: Candida albicans NRRL Y-477; test: Agar well diffusion, C. albicans; type: cell-based; settings: NRRLY477, 100 μL of 10 mg/mL in DMSO, read-out: diameter of inhibition zone, CA
From the text: as §1, §2

[4] = test system: Escherichia coli ATCC 2592; test: Agar well diffusion, E. coli; type: cell-based; settings: ATCC2592, 100 μL of 10 mg/mL in DMSO, read-out: diameter of inhibition zone, EC
From the text: as §1, §2

[5] = DPPH antioxidant assay (radical scavenging); type: biochemical; settings: mean ± SD (n = 3)
Description: The antioxidant effects of the synthesised compounds were assessed using the 2,2-diphenyl-1-picrylhydrazyl (DPPH) antioxidant assay. Table 1 summarises the antioxidant effects of the test samples and ascorbic acid except for compound 5b because it was produced in poor yield.
The radical scavenging activity of the synthesised compounds was measured using the DPPH microplate-based method. The absorbance was measured using a microplate/cuvette reader (Spectramax M5, Molecular Devices, San Jose, CA, USA). Reference standard ascorbic acid was utilised as the positive control for this assay. Test samples were prepared at a starting concentration of 200 μg/mL after mixing with 100 μL of 0.2 mM DPPH methanolic solution. […] Samples were incubated with DPPH in the dark for 30 min at room temperature (25 °C). The methanolic DPPH solution was prepared daily and stored in a flask covered with aluminium foil. DPPH radicals have an absorption maximum (λmax) at 515 nm, at which the absorbance values were measured and converted into a percentage of antioxidant activity.
The methanolic DPPH solution without antioxidants was used as a control, and samples in methanol alone served as a background control. IC50 was determined using GraphPad Prism 7 (GraphPad Software Inc., San Diego, CA, USA). The percent inhibition was calculated using the following Equation (1):(1) % Inhibition=100−Sample Absorbance −Sample background Absorbance/DPPH only Absorbance×100
The assay was carried out in triplicate and performed as much as possible in an area protected against light. The data points are presented as the mean ± standard deviation (SD, n = 3).

[6] = test system: Bacillus subtilis ATCC 6633; test: Agar well diffusion, B. subtilis; type: cell-based; settings: ATCC6633, 100 μL of 10 mg/mL in DMSO, read-out: diameter of inhibition zone, BS
From the text: as §1, §2

[7] = test system: Saccharomyces cerevisiae local isolate; test: Agar well diffusion, S. cerevisiae; type: cell-based; settings: read-out: diameter of inhibition zone, SC
From the text: as §1, §2

[8] = test system: Bacillus megaterium ATCC 9885; test: Agar well diffusion, B. megaterium; type: cell-based; settings: Priestia megaterium, ATCC9885, 100 μL of 10 mg/mL in DMSO, read-out: diameter of inhibition zone, BM
From the text: as §1, §2

COX-2 = molecular target: T2, COX-2 (Homo sapiens, UniProt P35354); test: COX-2 inhibition, Cayman assay kit; type: biochemical; settings: for IC50: mean of two determinations; for SI, selectivity index (COX-1/COX-2): ratio of COX-1/COX-2 IC50
T2 construct: purchased Cayman Chemical 701080
T2 sequence (P35354 18-604): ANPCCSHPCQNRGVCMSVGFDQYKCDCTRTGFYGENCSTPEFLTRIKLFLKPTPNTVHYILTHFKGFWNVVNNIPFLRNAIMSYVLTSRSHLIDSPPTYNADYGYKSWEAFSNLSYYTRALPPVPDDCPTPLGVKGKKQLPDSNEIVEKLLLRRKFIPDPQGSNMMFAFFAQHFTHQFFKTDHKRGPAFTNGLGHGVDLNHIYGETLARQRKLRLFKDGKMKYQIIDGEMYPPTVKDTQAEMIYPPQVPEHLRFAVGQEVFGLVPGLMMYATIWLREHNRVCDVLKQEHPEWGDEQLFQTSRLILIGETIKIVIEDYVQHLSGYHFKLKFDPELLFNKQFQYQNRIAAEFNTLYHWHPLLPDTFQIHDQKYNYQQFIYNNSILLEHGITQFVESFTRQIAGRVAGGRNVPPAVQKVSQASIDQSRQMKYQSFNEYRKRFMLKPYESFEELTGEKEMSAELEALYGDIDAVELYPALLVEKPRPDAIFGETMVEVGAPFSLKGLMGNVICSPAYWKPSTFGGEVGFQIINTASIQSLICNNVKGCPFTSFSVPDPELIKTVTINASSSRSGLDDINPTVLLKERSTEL

trypsin = test: Proteinase-inhibitory activity; type: biochemical; settings: 250 µg/mL; mean ± SD (n = 3)
Description: The newly synthesised compounds were individually tested for their in vitro anti-inflammatory activity against proteinase enzyme. […] This test was performed at the Pharmacology Department, Medical Research Division, National Research Centre, Cairo, Egypt. Furthermore, compounds 2–8 were evaluated for their COX1/COX2 inhibitory activities.
The test was performed according to El-Serwy et al. with minor modifications. The reaction mixture (2 mL) contained 0.06 mg trypsin, 20 mM Tris HCl buffer (pH 7.4), and 1 mL test sample (250 µg/mL for each compound). After incubating for 5 min, 1 mL of 0.8% (w/v) casein was added. The mixture was incubated for an additional 20 min. The reaction was arrested by adding 1 mL of 10% perchloric acid. The cloudy suspension was centrifuged, and the absorbance of the supernatant was read at 280 nm. Reference standard aspirin was used as the positive control. The experiment was performed in triplicate. The percent inhibition of protein denaturation was calculated using the following Equation (2):(2) % Inhibition=100−A control −A test/A control×100 where Acontrol and Atest represent the absorbance of the control reaction without and with the sample, respectively.

[9] = test system: Saccharomyces cerevisiae local isolate; test: MIC, two-fold serial dilution, S. cerevisiae; type: cell-based; settings: two-fold serial dilution, S. cerevisiae, read-out: Minimum inhibitory concentration, SC
From the text: as §1
(§3) The bacteriostatic activity of the active compounds (having IZ > 16 mm) was then evaluated using the two-fold serial dilution technique. Two-fold serial dilutions of the tested compounds solutions were prepared using the proper nutrient broth to reach final concentrations of 1000, 500, 250, and 125 μg/mL. The tubes were then inoculated with the test microorganisms grown in their suitable broth at 37 °C for 24 h (1 × 10^8 CFU/mL for bacteria and 1 × 10^6 CFU/mL of yeast), 0.1 mL of the above inoculum was administered per 5 mL, and the tubes were incubated at 37 °C for 24 h. The lowest concentration showing no growth was taken as the MIC.

[10] = test system: Candida albicans NRRL Y-477; test: MIC, two-fold serial dilution, C. albicans; type: cell-based; settings: NRRLY477, read-out: Minimum inhibitory concentration, CA
From the text: as §1, §3

[11] = well diffusion, 100 μL of 10 mg/mL in DMSO, S. cerevisiae

T1 sequence (P23219 24-599): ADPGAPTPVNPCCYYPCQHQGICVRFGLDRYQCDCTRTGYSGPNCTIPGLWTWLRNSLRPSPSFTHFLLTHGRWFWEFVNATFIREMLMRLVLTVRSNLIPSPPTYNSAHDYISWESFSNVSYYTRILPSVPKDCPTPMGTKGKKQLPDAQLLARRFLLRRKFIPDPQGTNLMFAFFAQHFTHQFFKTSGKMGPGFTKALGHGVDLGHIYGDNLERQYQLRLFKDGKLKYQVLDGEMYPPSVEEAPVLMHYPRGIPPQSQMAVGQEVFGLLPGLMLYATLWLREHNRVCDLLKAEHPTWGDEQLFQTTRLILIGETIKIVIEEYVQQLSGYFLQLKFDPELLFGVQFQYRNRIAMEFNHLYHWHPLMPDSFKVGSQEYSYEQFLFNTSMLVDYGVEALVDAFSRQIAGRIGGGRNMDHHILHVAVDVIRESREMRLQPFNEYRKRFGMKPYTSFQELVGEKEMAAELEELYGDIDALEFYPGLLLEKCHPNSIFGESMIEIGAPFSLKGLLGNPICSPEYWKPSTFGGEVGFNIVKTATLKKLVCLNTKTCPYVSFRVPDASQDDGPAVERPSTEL

| Compound | IC50 [5] | % Inhibition (proteinase) (trypsin) | MIC [9] | MIC [10] | zone of inhibition at 10000 µg/mL [1] | IC50 (COX-1) | zone of inhibition at 10000 µg/mL [2] | zone of inhibition at 10000 µg/mL [3] | zone of inhibition at 10000 µg/mL [4] | melting point | zone of inhibition at 10000 µg/mL [6] | zone of inhibition at 10000 µg/mL [7, 11] | zone of inhibition at 10000 µg/mL [8] | IC50 (COX-2) | SI, selectivity index (COX-1/COX-2) (COX-2) | zone of inhibition at 10000 µg/mL [7] |
| --- | --- | --- | --- | --- | --- | --- | --- | --- | --- | --- | --- | --- | --- | --- | --- | --- |
| Cc1ccc2oc(=O)c3c(c2c1)OC(/N=C/N(C)C)=C(C#N)C3c1ccc([N+](=O)[O-])cc1 (racemic) [4a, (±)-N′-(3-cyano-9-methyl-4-(4-nitrophenyl)-5-oxo-4H,5H-pyrano[3,2-c]chromen-2-yl)-N,N-dimethylformimidamide] | — ((—): inactive (IC50 > 200 μg/mL)) | 31.99 ± 2.45% |  |  | 16 mm | 12.5 µM | < 15 mm | < 15 mm | < 15 mm | 279 to 281 °C | < 15 mm |  | < 15 mm | 7.99 µM | 1.56 | < 15 mm |
| O=C1O[C@H]([C@@H](O)CO)C(O)=C1O [Ascorbic acid, reference compound] | 2.83 ± 0.166 µg/mL (≈ 16.1 µM) |  |  |  |  |  |  |  |  |  |  |  |  |  |  |  |
| Cc1ccc2oc(=O)c3c(c2c1)OC(/N=C/c1ccccc1)=C(C#N)C3c1ccco1 (racemic) [5b, (±)-2-(benzylideneamino)-4-(furan-2-yl)-9-methyl-5-oxo-4H,5H-pyrano[3,2-c]chromene-3-carbonitrile] |  |  |  |  |  | 215 µM |  |  |  | 250 to 252 °C |  |  |  | 19.6 µM | 10.9 and 10.97 |  |
| Cc1ccc2oc(=O)c3c(c2c1)OC(/N=C/N(C)C)=C(C#N)C3c1ccco1 (racemic) [4b, (±)-N′-(3-cyano-4-(furan-2-yl)-9-methyl-5-oxo-4H,5H-pyrano[3,2-c]chromen-2-yl)-N,N-dimethylformimidamide] | — ((—): inactive (IC50 > 200 μg/mL)) | 33.17 ± 2.79% |  |  | 16 mm | 57.5 µM | 15 mm | < 15 mm | 15 mm | 273 to 275 °C | < 15 mm |  | < 15 mm | 25.2 µM | 2.28 | < 15 mm |
| CC(=O)N1CCN(c2ccc(OCC3COC(Cn4ccnc4)(c4ccc(Cl)cc4Cl)O3)cc2)CC1 (stereo not shown) [Ketoconazole, reference compound] |  |  | 125 µg/mL (≈ 235 µM) | 125 µg/mL (≈ 235 µM) | < 15 mm |  | < 15 mm | 28 mm | < 15 mm |  | < 15 mm | 30 mm | < 15 mm |  |  |  |
| CC(=O)Oc1ccccc1C(=O)O [Aspirin, reference compound] |  | 45.83 ± 4.21% |  |  |  |  |  |  |  |  |  |  |  |  |  |  |

Continued, in another order:

| IC50 [5] | % Inhibition (proteinase) (trypsin) | MIC [9] | MIC [10] | Compound | zone of inhibition at 10000 µg/mL [1] | IC50 (COX-1) | zone of inhibition at 10000 µg/mL [2] | zone of inhibition at 10000 µg/mL [3] | zone of inhibition at 10000 µg/mL [4] | melting point | zone of inhibition at 10000 µg/mL [6] | zone of inhibition at 10000 µg/mL [7, 11] | zone of inhibition at 10000 µg/mL [8] | IC50 (COX-2) | SI, selectivity index (COX-1/COX-2) (COX-2) | zone of inhibition at 10000 µg/mL [7] |
| --- | --- | --- | --- | --- | --- | --- | --- | --- | --- | --- | --- | --- | --- | --- | --- | --- |
| 32.85 ± 1.322 µg/mL (≈ 83.4 µM) | 18.5 ± 3.47% |  |  | CC(=O)c1ccc(NS(=O)(=O)c2c(O)c3cc(Cl)ccc3oc2=O)cc1 [8e, N-(4-acetylphenyl)-6-chloro-4-hydroxy-2-oxo-2H-chromene-3-sulfonamide] | < 15 mm | 19.9 µM | < 15 mm | < 15 mm | < 15 mm | 238 to 240 °C | 15 mm | < 15 mm | 16 mm | 9.22 µM | 2.2 and 2.16 |  |
| 35.36 ± 3.265 µg/mL (≈ 94.7 µM) | 2.0 ± 1.4% |  |  | CC(=O)c1ccc(NS(=O)(=O)c2c(O)c3cc(C)ccc3oc2=O)cc1 [8f, N-(4-acetylphenyl)-4-hydroxy-6-methyl-2-oxo-2H-chromene-3-sulfonamide] | 16 mm | 7.92 µM | < 15 mm | < 15 mm | < 15 mm | 231 to 232 °C | 15 mm | < 15 mm | 15 mm | 25.7 µM | 0.3 and 0.31 |  |
